# From paper PMC5218480 (PLoS ONE, 2017)
# Tested on: MV-4-11 cells
# Assay: Gene expression microarray analysis (Affymetrix PrimeView) and GSEA
# Type: cell-based, human
# Parameters: RFU PODN (11730768_x_at) / Fold change /veh PODN (11730768_x_at) / RFU LINC00158 (11744669_a_at) / Fold change /veh LINC00158 (11744669_a_at) / RFU DUSP10 (11751237_a_at) / Fold change /veh DUSP10 (11751237_a_at) / RFU ID3 (11757404_x_at) / Fold change /veh ID3 (11757404_x_at) / RFU PLEKHG5 (11737974_s_at) / Fold change /veh PLEKHG5 (11737974_s_at) / RFU LRRC4B (11730491_at) / Fold change /veh LRRC4B (11730491_at) / RFU GIMAP4 (11747438_a_at) / Fold change /veh GIMAP4 (11747438_a_at) / RFU KRT8 (11758183_x_at) / Fold change /veh KRT8 (11758183_x_at) / RFU CNN1 (11734310_a_at) / Fold change /veh CNN1 (11734310_a_at) / RFU VPS37D (11726825_at) / Fold change /veh VPS37D (11726825_at) / RFU C10orf10 (11716522_x_at) / Fold change /veh C10orf10 (11716522_x_at) / RFU KIR2DL2 /// KIR2DL4 /// KIR2DL5A /// KIR2DL5B /// KIR2DS1 /// KIR2DS2 /// KIR2DS3 /// KIR2DS4 /// KIR3DL3 /// KIR3DL3 /// KIR3DS1 (11738374_at) / Fold change /veh KIR2DL2 /// KIR2DL4 /// KIR2DL5A /// KIR2DL5B /// KIR2DS1 /// KIR2DS2 /// KIR2DS3 /// KIR2DS4 /// KIR3DL3 /// KIR3DL3 /// KIR3DS1 (11738374_at) / RFU C1QL1 (11718748_at) / Fold change /veh C1QL1 (11718748_at) / RFU TMPRSS4 (11747572_a_at) / Fold change /veh TMPRSS4 (11747572_a_at) / RFU HAMP (11756126_x_at) / Fold change /veh HAMP (11756126_x_at) / RFU RNFT2 (11725882_a_at) / Fold change /veh RNFT2 (11725882_a_at) / RFU NR4A2 (11747474_a_at) / Fold change /veh NR4A2 (11747474_a_at) / RFU ABCC12 (11746883_a_at) / Fold change /veh ABCC12 (11746883_a_at) / RFU TMEM136 (11760407_x_at) / Fold change /veh TMEM136 (11760407_x_at) / RFU CLDN22 /// WWC2 (11732394_at) / Fold change /veh CLDN22 /// WWC2 (11732394_at) / RFU HLA-DPB1 (11760878_x_at) / Fold change /veh HLA-DPB1 (11760878_x_at) / RFU SPINT1 (11716480_a_at) / Fold change /veh SPINT1 (11716480_a_at) / RFU GAP43 (11754022_s_at) / Fold change /veh GAP43 (11754022_s_at) / RFU A4GNT (11735810_at) / Fold change /veh A4GNT (11735810_at) / RFU PRB3 (11715151_x_at) / Fold change /veh PRB3 (11715151_x_at) / RFU TUBB4B (11761932_at) / Fold change /veh TUBB4B (11761932_at) / RFU CAPN14 (11732068_a_at) / Fold change /veh CAPN14 (11732068_a_at) / RFU TMCC2 (11721928_a_at) / Fold change /veh TMCC2 (11721928_a_at) / RFU IRGQ (11745062_a_at) / Fold change /veh IRGQ (11745062_a_at) / RFU FAM174B (11720279_a_at) / Fold change /veh FAM174B (11720279_a_at) / RFU TMPRSS4 (11748680_a_at) / Fold change /veh TMPRSS4 (11748680_a_at) / RFU FAM212B (11763350_a_at) / Fold change /veh FAM212B (11763350_a_at) / RFU PLEKHG5 (11743358_a_at) / Fold change /veh PLEKHG5 (11743358_a_at) / RFU ZSCAN30 (11745921_a_at) / Fold change /veh ZSCAN30 (11745921_a_at) / RFU CMKLR1 (11741424_a_at) / Fold change /veh CMKLR1 (11741424_a_at) / RFU LOC101060620 /// MAPK8IP1 (11723275_at) / Fold change /veh LOC101060620 /// MAPK8IP1 (11723275_at) / RFU SPTSSB (11747773_x_at) / Fold change /veh SPTSSB (11747773_x_at) / RFU PRSS12 (11739890_at) / Fold change /veh PRSS12 (11739890_at) / RFU BIN1 (11741810_x_at) / Fold change /veh BIN1 (11741810_x_at) / RFU WNT11 (11732464_a_at) / Fold change /veh WNT11 (11732464_a_at) / RFU C10orf10 (11716521_a_at) / Fold change /veh C10orf10 (11716521_a_at) / RFU C5orf56 (11738089_at) / Fold change /veh C5orf56 (11738089_at) / RFU CYB561 (11721691_x_at) / Fold change /veh CYB561 (11721691_x_at) / RFU ANKRD19P (11752326_a_at) / Fold change /veh ANKRD19P (11752326_a_at) / RFU OR2T12 /// OR2T33 /// OR2T8 (11738714_s_at) / Fold change /veh OR2T12 /// OR2T33 /// OR2T8 (11738714_s_at) / RFU VCAN (11748164_a_at) / Fold change /veh VCAN (11748164_a_at) / RFU JSRP1 (11732532_at) / Fold change /veh JSRP1 (11732532_at) / RFU KRTAP10-11 (11738290_x_at) / Fold change /veh KRTAP10-11 (11738290_x_at) / RFU MYO3A (11730013_a_at) / Fold change /veh MYO3A (11730013_a_at) / RFU EBF3 (11725865_a_at) / Fold change /veh EBF3 (11725865_a_at) / RFU CAMK2N1 (11719241_x_at) / Fold change /veh CAMK2N1 (11719241_x_at) / RFU C5orf56 (11738088_a_at) / Fold change /veh C5orf56 (11738088_a_at) / RFU OLFML3 (11715873_a_at) / Fold change /veh OLFML3 (11715873_a_at) / RFU LOC100653217 /// NTM (11731650_a_at) / Fold change /veh LOC100653217 /// NTM (11731650_a_at) / RFU MAPK11 (11762145_a_at) / Fold change /veh MAPK11 (11762145_a_at) / RFU FIZ1 (11724087_x_at) / Fold change /veh FIZ1 (11724087_x_at) / RFU OASL (11726364_x_at) / Fold change /veh OASL (11726364_x_at) / RFU SOX15 (11748057_x_at) / Fold change /veh SOX15 (11748057_x_at) / RFU CD79A (11719716_a_at) / Fold change /veh CD79A (11719716_a_at) / RFU HIST1H1D (11736915_at) / Fold change /veh HIST1H1D (11736915_at) / RFU CASKIN2 (11723855_a_at) / Fold change /veh CASKIN2 (11723855_a_at) / RFU LOC730098 (11760151_x_at) / Fold change /veh LOC730098 (11760151_x_at) / RFU OR4N2 (11742367_at) / Fold change /veh OR4N2 (11742367_at) / RFU PRRT2 (11749266_a_at) / Fold change /veh PRRT2 (11749266_a_at) / RFU SNX32 (11753110_a_at) / Fold change /veh SNX32 (11753110_a_at) / RFU CDHR5 (11726645_a_at) / Fold change /veh CDHR5 (11726645_a_at) / RFU RCAN1 (11760418_a_at) / Fold change /veh RCAN1 (11760418_a_at) / RFU FAM167A (11723789_a_at) / Fold change /veh FAM167A (11723789_a_at) / RFU FAM26E (11764081_at) / Fold change /veh FAM26E (11764081_at) / RFU ISYNA1 (11749810_s_at) / Fold change /veh ISYNA1 (11749810_s_at) / RFU ACY1 (11761880_at) / Fold change /veh ACY1 (11761880_at) / RFU 11764098_at / Fold change /veh 11764098_at / RFU SAMD14 (11745864_x_at) / Fold change /veh SAMD14 (11745864_x_at) / RFU NPB (11741838_a_at) / Fold change /veh NPB (11741838_a_at) / RFU TMPRSS6 (11731388_a_at) / Fold change /veh TMPRSS6 (11731388_a_at) / RFU KRTAP10-2 (11738614_at) / Fold change /veh KRTAP10-2 (11738614_at) / RFU ARHGAP8 /// PRR5-ARHGAP8 (11727945_x_at) / Fold change /veh ARHGAP8 /// PRR5-ARHGAP8 (11727945_x_at) / RFU KRTAP5-7 /// NADSYN1 (11734609_at) / Fold change /veh KRTAP5-7 /// NADSYN1 (11734609_at) / RFU RASL12 (11751679_a_at) / Fold change /veh RASL12 (11751679_a_at) / RFU CDKN2B (11736163_a_at) / Fold change /veh CDKN2B (11736163_a_at) / RFU PRF1 (11729649_at) / Fold change /veh PRF1 (11729649_at) / RFU, ZNF638 /// ZNF638-IT1 / Fold change vs veh, ZNF638 /// ZNF638-IT1 / RFU, PANK3 / Fold change vs veh, PANK3 / RFU, SH3YL1 / Fold change vs veh, SH3YL1 / RFU, ZEB2 / Fold change vs veh, ZEB2 / RFU, NRIP1 / Fold change vs veh, NRIP1 / RFU, PTTG1IP / Fold change vs veh, PTTG1IP / RFU, CAPN2 / Fold change vs veh, CAPN2 / RFU, MED14 / Fold change vs veh, MED14 / RFU, SNORA58 / Fold change vs veh, SNORA58 / RFU, C1orf63 / Fold change vs veh, C1orf63 / RFU, LRRFIP1 / Fold change vs veh, LRRFIP1 / RFU, NDUFAF7 / Fold change vs veh, NDUFAF7 / RFU, SLC12A2 / Fold change vs veh, SLC12A2 / RFU, IBTK / Fold change vs veh, IBTK / RFU, ESF1 / Fold change vs veh, ESF1 / Fold change vs veh, TMEM50B / RFU, TAOK1 / Fold change vs veh, TAOK1 / RFU, ACBD3 / Fold change vs veh, ACBD3 / RFU, TMA16 / Fold change vs veh, TMA16 / RFU, RWDD3 / Fold change vs veh, RWDD3 / RFU, BCAT1 / Fold change vs veh, BCAT1 / RFU, EDEM3 / Fold change vs veh, EDEM3 / RFU, TMEM33 / Fold change vs veh, TMEM33 / RFU, WDR75 / Fold change vs veh, WDR75 / RFU, AHCTF1 / Fold change vs veh, AHCTF1 / RFU, TFRC / Fold change vs veh, TFRC / RFU, ZDHHC17 / Fold change vs veh, ZDHHC17 / RFU, NOM1 / Fold change vs veh, NOM1 / RFU, ARL8B / Fold change vs veh, ARL8B / RFU, ZBTB11 / Fold change vs veh, ZBTB11 / RFU, TAMM41 / Fold change vs veh, TAMM41 / RFU, KIAA1704 /// LOC100996395 / Fold change vs veh, KIAA1704 /// LOC100996395 / RFU, ING1 / Fold change vs veh, ING1 / RFU, TRMT61B / Fold change vs veh, TRMT61B / RFU, FUBP3 / Fold change vs veh, FUBP3 / RFU, TP53 / Fold change vs veh, TP53 / RFU, TNKS2 / Fold change vs veh, TNKS2 / RFU, ZFP14 / Fold change vs veh, ZFP14 / RFU, ACTR2 / Fold change vs veh, ACTR2 / RFU, PPP3R1 / Fold change vs veh, PPP3R1 / RFU, PIK3R1 / Fold change vs veh, PIK3R1 / RFU, HNRNPA1 / Fold change vs veh, HNRNPA1 / RFU, RNF170 / Fold change vs veh, RNF170 / RFU, ZNF28 / Fold change vs veh, ZNF28 / RFU, RNGTT / Fold change vs veh, RNGTT / RFU, OGT / Fold change vs veh, OGT / RFU, BRD1 / Fold change vs veh, BRD1 / RFU, MARS / Fold change vs veh, MARS / RFU, ZNF655 / Fold change vs veh, ZNF655 / RFU, FAHD1 / Fold change vs veh, FAHD1 / RFU, BDP1 / Fold change vs veh, BDP1 / RFU, LRRCC1 / Fold change vs veh, LRRCC1 / RFU, ARID1A / Fold change vs veh, ARID1A / RFU, ZNF146 / Fold change vs veh, ZNF146 / RFU, ZNF330 / Fold change vs veh, ZNF330 / RFU, GPN3 / Fold change vs veh, GPN3 / RFU, C9orf123 / Fold change vs veh, C9orf123 / RFU, N4BP2L2 / Fold change vs veh, N4BP2L2 / RFU, ARFIP1 / Fold change vs veh, ARFIP1 / RFU, FAM179B / Fold change vs veh, FAM179B / RFU, BCL10 / Fold change vs veh, BCL10 / RFU, UHRF1BP1L / Fold change vs veh, UHRF1BP1L / RFU, BET1 / Fold change vs veh, BET1 / RFU, CNOT2 / Fold change vs veh, CNOT2 / RFU, ZNF268 / Fold change vs veh, ZNF268 / Fold change vs veh, ZNF507 / RFU, DGCR2 / Fold change vs veh, DGCR2 / RFU, WDSUB1 / Fold change vs veh, WDSUB1 / Fold change vs veh, HSP90B1 /// MIR3652 / RFU, ADSS / Fold change vs veh, ADSS / RFU, GK / Fold change vs veh, GK / RFU, ZNF148 / Fold change vs veh, ZNF148 / RFU, TAF9 / Fold change vs veh, TAF9 / RFU, SLC1A5 / Fold change vs veh, SLC1A5 / RFU, SLMO2 / Fold change vs veh, SLMO2 / RFU, ABCC4 / Fold change vs veh, ABCC4 / RFU, LOC101060439 /// RAP1B / Fold change vs veh, LOC101060439 /// RAP1B / RFU, RFX7 / Fold change vs veh, RFX7 / RFU, GTPBP10 / Fold change vs veh, GTPBP10 / RFU, CNEP1R1 / Fold change vs veh, CNEP1R1 / RFU, BIVM-ERCC5 /// ERCC5 / Fold change vs veh, BIVM-ERCC5 /// ERCC5 / RFU, ILF3 / Fold change vs veh, ILF3 / RFU 11762660_at / Fold change /veh 11762660_at / RFU VCAN (11757783_s_at) / Fold change /veh VCAN (11757783_s_at) / RFU DDX43 (11728927_at) / Fold change /veh DDX43 (11728927_at) / RFU KRT8 (11758188_x_at) / Fold change /veh KRT8 (11758188_x_at) / RFU NKD1 (11759106_at) / Fold change /veh NKD1 (11759106_at) / RFU SRD5A1 (11742802_a_at) / Fold change /veh SRD5A1 (11742802_a_at) / RFU TPSAB1 /// TPSB2 (11721975_s_at) / Fold change /veh TPSAB1 /// TPSB2 (11721975_s_at) / RFU GSTM3 (11746129_a_at) / Fold change /veh GSTM3 (11746129_a_at) / RFU IL23R (11737362_x_at) / Fold change /veh IL23R (11737362_x_at) / RFU TMEM51 (11727254_a_at) / Fold change /veh TMEM51 (11727254_a_at) / RFU PIWIL2 (11732686_x_at) / Fold change /veh PIWIL2 (11732686_x_at) / RFU ORM1 (11744905_x_at) / Fold change /veh ORM1 (11744905_x_at) / RFU CCDC152 (11743942_at) / Fold change /veh CCDC152 (11743942_at) / RFU ECM1 (11717891_a_at) / Fold change /veh ECM1 (11717891_a_at) / RFU IL23R (11748794_a_at) / Fold change /veh IL23R (11748794_a_at) / RFU TNFAIP8L3 (11732012_x_at) / Fold change /veh TNFAIP8L3 (11732012_x_at) / RFU MBOAT4 (11741988_at) / Fold change /veh MBOAT4 (11741988_at) / RFU 11764193_at / Fold change /veh 11764193_at / RFU TMEM53 (11763286_at) / Fold change /veh TMEM53 (11763286_at) / RFU MAGEB2 (11727129_at) / Fold change /veh MAGEB2 (11727129_at) / RFU TMEM200A (11744735_a_at) / Fold change /veh TMEM200A (11744735_a_at) / RFU CCDC152 (11751479_a_at) / Fold change /veh CCDC152 (11751479_a_at) / RFU FAM211A (11726209_a_at) / Fold change /veh FAM211A (11726209_a_at) / RFU RGS16 (11746705_a_at) / Fold change /veh RGS16 (11746705_a_at) / RFU VCAN (11755009_s_at) / Fold change /veh VCAN (11755009_s_at) / RFU RHOB (11743442_s_at) / Fold change /veh RHOB (11743442_s_at) / RFU RGS16 (11720943_a_at) / Fold change /veh RGS16 (11720943_a_at) / RFU RGS16 (11720944_at) / Fold change /veh RGS16 (11720944_at) / RFU, VPS4B / Fold change vs veh, VPS4B / RFU, CREB1 / Fold change vs veh, CREB1 / RFU, DNAJC13 / Fold change vs veh, DNAJC13 / RFU, GNAQ / Fold change vs veh, GNAQ / RFU, CDK5R1 / Fold change vs veh, CDK5R1 / RFU, ZRANB3 / Fold change vs veh, ZRANB3 / RFU, CUL4A / Fold change vs veh, CUL4A / RFU, CCNY / Fold change vs veh, CCNY / RFU, UFL1 / Fold change vs veh, UFL1 / RFU, COG3 / Fold change vs veh, COG3 / RFU, DIAPH2 / Fold change vs veh, DIAPH2 / RFU, SKA2 / Fold change vs veh, SKA2 / RFU, AFF3 / Fold change vs veh, AFF3 / RFU, LMF1 / Fold change vs veh, LMF1 / RFU, IPO11 / Fold change vs veh, IPO11 / RFU, DFFB / Fold change vs veh, DFFB / RFU, FOXP1 / Fold change vs veh, FOXP1 / RFU, CARD8 / Fold change vs veh, CARD8 / RFU, STRN3 / Fold change vs veh, STRN3 / RFU, ADK / Fold change vs veh, ADK / RFU, RASSF2 / Fold change vs veh, RASSF2 / RFU, WIPF1 / Fold change vs veh, WIPF1 / RFU, LARP1B / Fold change vs veh, LARP1B / RFU, RASA1 / Fold change vs veh, RASA1 / RFU, RB1 / Fold change vs veh, RB1 / RFU, PPFIA1 / Fold change vs veh, PPFIA1 / RFU, MAT2A / Fold change vs veh, MAT2A / RFU, CCT5 / Fold change vs veh, CCT5 / RFU, WDR92 / Fold change vs veh, WDR92 / RFU, CUX1 / Fold change vs veh, CUX1 / RFU, TTC7A / Fold change vs veh, TTC7A / RFU, TMEM135 / Fold change vs veh, TMEM135 / RFU, DEPTOR / Fold change vs veh, DEPTOR / RFU, CPM / Fold change vs veh, CPM / RFU, DNAJB6 / Fold change vs veh, DNAJB6 / RFU, CACNA2D3 / Fold change vs veh, CACNA2D3 / RFU, DTX4 / Fold change vs veh, DTX4 / RFU, TFCP2 / Fold change vs veh, TFCP2 / RFU, GMCL1 /// GMCL1P1 / Fold change vs veh, GMCL1 /// GMCL1P1 / RFU, AEBP2 / Fold change vs veh, AEBP2 / RFU, SNHG1 /// SNORD22 /// SNORD25 /// SNORD26 /// SNORD27 /// SNORD28 /// SNORD29 /// SNORD31 / Fold change vs veh, SNHG1 /// SNORD22 /// SNORD25 /// SNORD26 /// SNORD27 /// SNORD28 /// SNORD29 /// SNORD31 / Fold change (Aza/veh), C12orf56 (ProbeSet 11735607_a_at) / Fold change (ACY-1035/veh), C12orf56 (ProbeSet 11735607_a_at) / Fold change (Aza/veh), FGFR1OP (ProbeSet 11751329_s_at) / Fold change (ACY-1035/veh), FGFR1OP (ProbeSet 11751329_s_at) / Fold change (Aza/veh), VPS36 (ProbeSet 11739960_a_at) / Fold change (ACY-1035/veh), VPS36 (ProbeSet 11739960_a_at) / RFU SYPL1 (11715823_x_at) / Fold change /veh SYPL1 (11715823_x_at) / RFU IGFBP7 (11715501_s_at) / Fold change /veh IGFBP7 (11715501_s_at) / RFU REEP3 (11722064_at) / Fold change /veh REEP3 (11722064_at) / RFU IGLL1 (11728026_x_at) / Fold change /veh IGLL1 (11728026_x_at): dose or concentration left out as unconfirmed
# Conditions: ProbeSet 11745789_a_at; LIST D
structure (smiles),measurement,value
Nc1ccc(-c2cccs2)cc1NC(=O)c1ccc2c(c1)cc(C1CC1)n2CCN1CCOCC1 [ACY-1035],"RFU, TMEM135",185.11 RFU
